US9120812B2, “Pyrimidooxazocine derivatives as mTOR-inhibitors” (SANOFI, priority 2012, dated 2015)
pIC50: −log10 of the molar value.

Assays:
[1] = system: Akt-pS473 in U87MG cells; conditions: Homo sapiens, U-87 MG; for IC50: read-out: U87 Akt-pS473 % Inhibition or IC50, nM (IC50), U87MG cells
[2] = target: PI3Kα (p110α/p85α) (Homo sapiens (Human), UniProt P42336); assay: PI3Kα enzymatic test by measuring the consumption of ATP; type: biochemical
In short: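 p110α/p85α (1.7 μg/ml) with 50 μM PIP2 and 2 μM ATP in pH 7.5 Tris buffer with EGTA, MgCl2, Chaps, DTT; reaction 90 min. Remaining ATP measured by luciferin/luciferase luminescence; IC50 from threefold serial dilutions spanning at least 10 000-fold.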

[3] = target: mTOR (human recombinant aa mTOR 1360-2549) (Homo sapiens (Human), UniProt P42345); assay: mTOR enzymatic test by TR-FRET (phosphorylation of GFP-4EBP1); type: biochemical
In short: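 TR-FRET detection of GFP-4EBP1 phosphorylation by a terbium-labelled anti-phospho-Thr46 antibody. Kinase reaction ran 30 min at room temperature, was quenched with EDTA (10 mM final) plus Tb-antibody (2 nM final) and left 60 min. Emission at 520 and 490 nm after 340 nm excitation, reported as the 520/490 ratio.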

[4] = system: U87MG tumour cells; assay: Test of in vitro proliferation of U87MG tumour cells; type: cell-based; conditions: Homo sapiens, U-87 MG, 72 h, U87MG cells, 72 hours; read-out: U87 Cell Proliferation IC50
Description: Model 4: Test of in vitro Proliferation of U87MG Tumour Cells.
The cell growth is determined with the reagent CellTiter 96 AQueous One Solution Cell Proliferation Assay from Promega (Cat. No. G3581).

PI3Kα (p110α/p85α), sequence (P42336 whole entry): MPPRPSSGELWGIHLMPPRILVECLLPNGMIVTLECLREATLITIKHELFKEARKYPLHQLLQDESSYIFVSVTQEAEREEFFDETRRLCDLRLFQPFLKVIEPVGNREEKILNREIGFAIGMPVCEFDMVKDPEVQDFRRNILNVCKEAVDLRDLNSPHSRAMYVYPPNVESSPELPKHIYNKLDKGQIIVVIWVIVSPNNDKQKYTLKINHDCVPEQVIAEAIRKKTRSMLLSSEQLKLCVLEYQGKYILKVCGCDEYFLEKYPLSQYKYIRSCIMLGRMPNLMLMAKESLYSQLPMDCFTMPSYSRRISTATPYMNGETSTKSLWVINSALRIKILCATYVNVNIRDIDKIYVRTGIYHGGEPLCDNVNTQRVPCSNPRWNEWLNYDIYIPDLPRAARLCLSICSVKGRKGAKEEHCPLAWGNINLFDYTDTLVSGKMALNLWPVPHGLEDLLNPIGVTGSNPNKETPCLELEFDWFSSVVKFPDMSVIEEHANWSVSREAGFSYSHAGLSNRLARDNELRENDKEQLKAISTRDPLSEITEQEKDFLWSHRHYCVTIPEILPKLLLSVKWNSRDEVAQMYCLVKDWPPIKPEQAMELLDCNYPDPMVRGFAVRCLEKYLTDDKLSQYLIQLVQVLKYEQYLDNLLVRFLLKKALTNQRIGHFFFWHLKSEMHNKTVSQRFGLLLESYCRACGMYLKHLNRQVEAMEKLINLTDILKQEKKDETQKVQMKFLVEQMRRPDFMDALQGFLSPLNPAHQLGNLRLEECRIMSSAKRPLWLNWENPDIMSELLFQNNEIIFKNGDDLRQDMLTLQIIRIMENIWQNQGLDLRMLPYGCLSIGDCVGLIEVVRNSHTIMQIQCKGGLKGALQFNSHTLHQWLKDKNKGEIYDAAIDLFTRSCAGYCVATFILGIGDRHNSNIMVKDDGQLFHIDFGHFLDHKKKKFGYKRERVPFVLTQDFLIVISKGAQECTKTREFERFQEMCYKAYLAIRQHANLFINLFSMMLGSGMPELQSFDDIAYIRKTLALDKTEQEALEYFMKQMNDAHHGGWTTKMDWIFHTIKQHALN
PI3Kα (p110α/p85α), sequence (P27986 whole entry partner): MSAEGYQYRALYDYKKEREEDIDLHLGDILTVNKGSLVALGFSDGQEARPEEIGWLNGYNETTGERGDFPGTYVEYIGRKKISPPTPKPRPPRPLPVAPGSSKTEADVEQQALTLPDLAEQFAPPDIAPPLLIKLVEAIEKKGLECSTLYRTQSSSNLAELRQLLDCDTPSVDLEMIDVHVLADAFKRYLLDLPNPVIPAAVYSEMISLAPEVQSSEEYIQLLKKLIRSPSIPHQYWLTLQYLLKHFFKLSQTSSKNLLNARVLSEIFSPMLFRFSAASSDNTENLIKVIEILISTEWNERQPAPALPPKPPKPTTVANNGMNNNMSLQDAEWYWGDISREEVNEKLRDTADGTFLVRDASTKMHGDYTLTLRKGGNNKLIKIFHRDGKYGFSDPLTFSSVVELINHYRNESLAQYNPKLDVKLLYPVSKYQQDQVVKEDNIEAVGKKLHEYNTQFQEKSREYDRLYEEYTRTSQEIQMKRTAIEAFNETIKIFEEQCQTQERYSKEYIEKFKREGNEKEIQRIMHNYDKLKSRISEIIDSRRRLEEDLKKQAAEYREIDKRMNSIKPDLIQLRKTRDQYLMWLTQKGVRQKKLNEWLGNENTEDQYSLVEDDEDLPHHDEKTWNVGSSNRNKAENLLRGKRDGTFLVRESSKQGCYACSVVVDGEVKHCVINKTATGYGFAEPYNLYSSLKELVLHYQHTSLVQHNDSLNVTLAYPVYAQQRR
mTOR (human recombinant aa mTOR 1360-2549), sequence (P42345 1360-2549): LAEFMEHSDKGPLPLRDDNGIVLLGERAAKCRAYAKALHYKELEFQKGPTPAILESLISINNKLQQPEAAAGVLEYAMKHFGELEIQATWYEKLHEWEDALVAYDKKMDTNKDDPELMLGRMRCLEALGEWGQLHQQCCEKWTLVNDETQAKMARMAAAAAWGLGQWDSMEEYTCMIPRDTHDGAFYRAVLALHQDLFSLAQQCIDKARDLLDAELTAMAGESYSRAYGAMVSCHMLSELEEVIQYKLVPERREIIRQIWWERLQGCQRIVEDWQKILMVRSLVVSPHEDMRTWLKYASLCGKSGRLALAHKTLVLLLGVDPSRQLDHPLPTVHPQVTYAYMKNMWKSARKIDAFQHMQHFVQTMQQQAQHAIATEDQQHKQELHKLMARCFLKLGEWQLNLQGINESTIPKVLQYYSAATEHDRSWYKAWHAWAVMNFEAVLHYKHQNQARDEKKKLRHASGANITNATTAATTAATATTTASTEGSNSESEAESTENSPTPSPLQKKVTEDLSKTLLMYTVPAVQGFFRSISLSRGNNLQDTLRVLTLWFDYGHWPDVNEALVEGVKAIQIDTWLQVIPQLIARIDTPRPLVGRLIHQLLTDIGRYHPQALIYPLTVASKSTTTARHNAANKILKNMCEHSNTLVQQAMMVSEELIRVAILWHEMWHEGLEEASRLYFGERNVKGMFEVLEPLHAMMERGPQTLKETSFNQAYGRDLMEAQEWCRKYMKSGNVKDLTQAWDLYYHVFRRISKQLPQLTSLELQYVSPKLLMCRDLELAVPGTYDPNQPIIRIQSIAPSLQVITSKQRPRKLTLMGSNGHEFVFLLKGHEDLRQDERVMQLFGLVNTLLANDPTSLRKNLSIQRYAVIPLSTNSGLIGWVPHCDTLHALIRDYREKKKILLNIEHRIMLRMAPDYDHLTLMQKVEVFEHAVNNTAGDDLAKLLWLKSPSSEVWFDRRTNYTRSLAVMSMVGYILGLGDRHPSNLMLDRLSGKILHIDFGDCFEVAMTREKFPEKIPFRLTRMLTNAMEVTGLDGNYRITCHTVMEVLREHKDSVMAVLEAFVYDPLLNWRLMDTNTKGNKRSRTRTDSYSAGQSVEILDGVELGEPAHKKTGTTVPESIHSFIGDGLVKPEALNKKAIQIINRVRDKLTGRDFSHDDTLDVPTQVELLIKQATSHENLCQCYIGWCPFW

Row | SMILES | IC50 [1] | PI3Ka IC50 [2] | pIC50 [3] | pIC50 [4] | inhibition at 3 µM ([1]; read-out: U87 Akt-pS473 % Inhibition)
1 | CCNC(=O)Nc1ccc(-c2nc(N3CC4CCC(C3)O4)nc3c2C(=O)N(CCOC)CC(C)(C)O3)cc1F [Example 211, 1-Ethyl-3-{2-fluoro-4-[6-(2-methoxyethyl)-8,8-dimethyl-2-(8-oxa-3-azabicyclo[3.2.1]oct-3-yl)-5-oxo-5,6,7,8-tetrahydro-9-oxa-1,3,6-triazabenzocyclohepten-4-yl]phenyl}urea] | 270 nM | >10000 nM | 7.06 | 6.05 | 
2 | CCNC(=O)Nc1ccc(-c2nc(N3CCOC[C@@H]3C)nc3c2C(=O)N(CC)CC(C)(C)O3)cc1F [Example 3, 1-Ethyl-3-{4-[6-ethyl-8,8-dimethyl-2-((S)-3-methylmorpholin-4-yl)-5-oxo-5,6,7,8-tetrahydro-9-oxa-1,3,6-triazabenzocyclohepten-4-yl]-2-fluorophenyl}urea] | 48 nM | 2110 nM | 7.74 | 6.62 | 
3 | CCN1CC(C)(C)Oc2nc(N3CC4CCC(C3)O4)nc(-c3ccc(NC(=O)Nc4ccc(N5CCCC5)nc4)c(F)c3)c2C1=O [Example 32, 1-{4-[6-Ethyl-8,8-dimethyl-2-(8-oxa-3-azabicyclo[3.2.1]oct-3-yl)-5-oxo-5,6,7,8-tetrahydro-9-oxa-1,3,6-triazabenzocyclohepten-4-yl]-2-fluorophenyl}-3-(6-pyrrolidin-1-ylpyridin-3-yl)urea] | 21 nM | >10000 nM | 7.08 | 6.94 | 
4 | CCN1CC(C)(C)Oc2nc(N3CC4CCC(C3)O4)nc(-c3ccc(NC(=O)Nc4ccc(N5CCCC5)cn4)cc3)c2C1=O [Example 25, 1-{4-[6-ethyl-8,8-dimethyl-2-(8-oxa-3-azabicyclo[3.2.1]oct-3-yl)-5-oxo-5,6,7,8-tetrahydro-9-oxa-1,3,6-triazabenzocyclohepten-4-yl]phenyl}-3-(5-pyrrolidin-1-ylpyridin-2-yl)urea] | 124 nM | >10000 nM | 6.89 | 6.71 | 
5 | CCN1CC(C)(C)Oc2nc(N3CC4CCC(C3)O4)nc(-c3ccc(NC(=O)Nc4cc(OC)c(F)cc4F)cc3)c2C1=O [Example 155, 1-(2,4-Difluoro-5-methoxyphenyl)-3-{4-[6-ethyl-8,8-dimethyl-2-(8-oxa-3-azabicyclo[3.2.1]oct-3-yl)-5-oxo-5,6,7,8-tetrahydro-9-oxa-1,3,6-triazabenzocyclohepten-4-yl]phenyl}urea] | 59 nM | >10000 nM | 7.10 | 6.85 | 
6 | CCN1CC(C)(C)Oc2nc(N3[C@@H]4CC[C@H]3COC4)nc(-c3ccc(NC(=O)Nc4ccncc4F)cc3)c2C1=O [Example 75, 1-[4-((1S,5R)-6-Ethyl-8,8-dimethyl-2-3-oxa-8-azabicyclo[3.2.1]oct-8-yl-5-oxo-5,6,7,8-tetrahydro-9-oxa-1,3,6-triazabenzocyclohepten-4-yl)phenyl]-3-(3-fluoropyridin-4-yl)urea] | 8 nM | 5570 nM | 7.40 | 7.33 | 
7 | CCN1CC(C)(C)Oc2nc(N3CC4CCC(C3)O4)nc(-c3ccc(NC(=O)Nc4ccc(C(=O)NCC(C)(C)O)cc4)cc3)c2C1=O [Example 190, 4-(3-{4-[6-Ethyl-8,8-dimethyl-2-(8-oxa-3-azabicyclo[3.2.1]oct-3-yl)-5-oxo-5,6,7,8-tetrahydro-9-oxa-1,3,6-triazabenzocyclohepten-4-yl]phenyl}ureido)-N-(2-hydroxy-2-methylpropyl)benzamide] |  | 927 nM | 7.40 | 6.13 | 69%
8 | CCN1CC(C)(C)Oc2nc(N3C4CCC3COC4)nc(-c3ccc(NC(=O)Nc4ccncc4)c(F)c3)c2C1=O [Example 51, 1-{4-[6-Ethyl-8,8-dimethyl-2-(3-oxa-8-azabicyclo[3.2.1]oct-8-yl)-5-oxo-5,6,7,8-tetrahydro-9-oxa-1,3,6-triazabenzocyclohepten-4-yl]-2-fluorophenyl}-3-pyridin-4-ylurea] | 14 nM | 1900 nM | 7.70 | 7.92 | 
9 | CCN1CC(C)(C)Oc2nc(N3C4CCC3COC4)nc(-c3ccc(NC(=O)Nc4cccnc4)c(F)c3)c2C1=O [Example 50, 1-{4-[6-Ethyl-8,8-dimethyl-2-(3-oxa-8-azabicyclo[3.2.1]oct-8-yl)-5-oxo-5,6,7,8-tetrahydro-9-oxa-1,3,6-triazabenzocyclohepten-4-yl]-2-fluorophenyl}-3-pyridin-3-ylurea] | 7 nM | 2870 nM | 7.41 | 7.40 | 
10 | CC1(C)CN(C2CCOCC2)C(=O)c2c(nc(N3CC4CCC(C3)O4)nc2-c2ccc(NC(=O)Nc3ccon3)cc2)O1 [Example 157, 1-{4-[8,8-Dimethyl-2-(8-oxa-3-azabicyclo[3.2.1]oct-3-yl)-5-oxo-6-(tetrahydropyran-4-yl)-5,6,7,8-tetrahydro-9-oxa-1,3,6-triazabenzocyclohepten-4-yl]phenyl}-3-isoxazol-3-ylurea] | 67 nM | >10000 nM | 7.57 | 6.59 | 
11 | Cc1ccc(NC(=O)Nc2ccc(-c3nc(N4CC5CCC(C4)O5)nc4c3C(=O)N(C)CC(C)(C)O4)cc2)nc1 [Example 42, 1-(5-Methylpyridin-2-yl)-3-{4-[6,8,8-trimethyl-2-(8-oxa-3-azabicyclo[3.2.1]oct-3-yl)-5-oxo-5,6,7,8-tetrahydro-9-oxa-1,3,6-triazabenzocyclohepten-4-yl]phenyl}urea] | 52 nM | >10000 nM | 7.37 | 6.46 | 
12 | CCN1CC(C)(C)Oc2nc(N3CC4CCC(C3)O4)nc(-c3ccc(NC(=O)Nc4ccc(OC5CCN(C)CC5)nc4)c(F)c3)c2C1=O [Example 22, 1-{4-[6-ethyl-8,8-dimethyl-2-(8-oxa-3-azabicyclo[3.2.1]oct-3-yl)-5-oxo-5,6,7,8-tetrahydro-9-oxa-1,3,6-triazabenzocyclohepten-4-yl]-2-fluorophenyl}-3-[6-(1-methylpiperidin-4-yloxy)pyridin-3-yl]urea] | 28 nM | 3070 nM | 7.12 | 7.17 | 
13 | Cc1ccc(NC(=O)Nc2ccc(-c3nc(N4C5CCC4COC5)nc4c3C(=O)N(C)CC(C)(C)O4)cc2F)cn1 [Example 67, 1-{2-Fluoro-4-[6,8,8-trimethyl-2-(3-oxa-8-azabicyclo[3.2.1]oct-8-yl)-5-oxo-5,6,7,8-tetrahydro-9-oxa-1,3,6-triazabenzocyclohepten-4-yl]phenyl}-3-(6-methylpyridin-3-yl)urea] | 20 nM | >10000 nM | 7.82 | 7.16 | 
14 | CCN1CC(C)(C)Oc2nc(N3CC4CCC(C3)O4)nc(-c3ccc(NC(=O)Nc4cncc(OC)n4)c(F)c3)c2C1=O [Example 139, 1-{4-[6-Ethyl-8,8-dimethyl-2-(8-oxa-3-azabicyclo[3.2.1]oct-3-yl)-5-oxo-5,6,7,8-tetrahydro-9-oxa-1,3,6-triazabenzocyclohepten-4-yl]-2-fluorophenyl}-3-(6-methoxypyrazin-2-yl)urea] | 721 nM | >10000 nM | 6.60 | 5.52 | 
